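Tested at 5 concentrations; 48 h exposure; 96-well plates; endpoints linearly interpolated, else capped at highest concentration. TGI: concentration producing complete growth inhibition.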

Our source for the TGI values is PubChem BioAssay (NCI).

The first experiment has as its system NCI-H23 lung. Put plainly: NCI-60 cell line screen, 48 h.
The compound `CCN(CCCN(CC)C(=O)Nc1c(C)cccc1C)C(=O)Nc1c(C)cccc1C` registered a TGI greater than 100 µM.

A further experiment relates to SN12C renal. The experiment can be described thus: NCI-60 cell line screen, 48 h.
In turn, `COc1cc(C2c3cc4c(cc3OC(NN)C2C)OCO4)cc(OC)c1OC` (centres undefined) registered a TGI greater than 100 µM.

As for `CC1=C[C@@H]2Cc3nc4cc(Cl)ccc4c(N)c3[C@H](C1)C2`, the TGI stood at 29.6 µM.

`COc1cc(NS(C)(=O)=O)ccc1Nc1cc(C)[nH]c2ccc3nccc3c12` returned a TGI greater than 100 µM.

For `CCN(CCCN(CC)C(=O)Nc1c(C)cccc1C)C(=O)Nc1c(C)cccc1C`, the TGI is greater than 100 µM.

In another experiment the test system is NCI/ADR-RES ovarian. The experiment can be described thus: NCI-60 cell line screen, 48 h.
`COc1cc(C2c3cc4c(cc3OC(NN)C2C)OCO4)cc(OC)c1OC` (centres undefined) gave a TGI greater than 100 µM.

Compound `CC1=C[C@@H]2Cc3nc4cc(Cl)ccc4c(N)c3[C@H](C1)C2` showed a TGI of 25 µM.

As to `COc1cc(NS(C)(=O)=O)ccc1Nc1cc(C)[nH]c2ccc3nccc3c12`, the TGI is greater than 100 µM.

`CCN(CCCN(CC)C(=O)Nc1c(C)cccc1C)C(=O)Nc1c(C)cccc1C`: the TGI is greater than 100 µM.

In the next experiment the test system is MDA-N. The experiment can be described thus: NCI-60 cell line screen, 48 h.
For the compound `COc1cc(C2c3cc4c(cc3OC(NN)C2C)OCO4)cc(OC)c1OC` (centres undefined), the TGI is greater than 100 µM.

Regarding `CC1=C[C@@H]2Cc3nc4cc(Cl)ccc4c(N)c3[C@H](C1)C2`, the TGI is 31.5 µM.

On to `COc1cc(NS(C)(=O)=O)ccc1Nc1cc(C)[nH]c2ccc3nccc3c12`, for which the TGI was greater than 100 µM.

In turn, `CCN(CCCN(CC)C(=O)Nc1c(C)cccc1C)C(=O)Nc1c(C)cccc1C` registered a TGI greater than 100 µM.

For the next experiment, the system named is HOP-92 NSCLC. Put plainly: NCI-60 cell line screen, 48 h.
The compound `COc1cc(C2c3cc4c(cc3OC(NN)C2C)OCO4)cc(OC)c1OC` (centres undefined) came in with a TGI of 84.8 µM.

On to `CC1=C[C@@H]2Cc3nc4cc(Cl)ccc4c(N)c3[C@H](C1)C2`, for which the TGI was 10.8 µM.

Compound `COc1cc(NS(C)(=O)=O)ccc1Nc1cc(C)[nH]c2ccc3nccc3c12` displayed a TGI greater than 100 µM.

Take `CCN(CCCN(CC)C(=O)Nc1c(C)cccc1C)C(=O)Nc1c(C)cccc1C`: the TGI was greater than 100 µM.

In a further experiment the test system is UO-31 renal. Put plainly: NCI-60 cell line screen, 48 h.
In turn, `COc1cc(C2c3cc4c(cc3OC(NN)C2C)OCO4)cc(OC)c1OC` (centres undefined) registered a TGI greater than 100 µM.

`CC1=C[C@@H]2Cc3nc4cc(Cl)ccc4c(N)c3[C@H](C1)C2` registered a TGI of 17.7 µM.

`COc1cc(NS(C)(=O)=O)ccc1Nc1cc(C)[nH]c2ccc3nccc3c12` had a TGI greater than 100 µM.

In turn, `CCN(CCCN(CC)C(=O)Nc1c(C)cccc1C)C(=O)Nc1c(C)cccc1C` gave a TGI greater than 100 µM.

A further experiment concerns NCI-H226 lung. The experiment can be described thus: NCI-60 cell line screen, 48 h.
With `COc1cc(C2c3cc4c(cc3OC(NN)C2C)OCO4)cc(OC)c1OC` (centres undefined), the TGI was greater than 24.4 µM.

On to `CC1=C[C@@H]2Cc3nc4cc(Cl)ccc4c(N)c3[C@H](C1)C2`, for which the TGI was determined as 32.5 µM.

As to `COc1cc(NS(C)(=O)=O)ccc1Nc1cc(C)[nH]c2ccc3nccc3c12`, the TGI is greater than 100 µM.

Consider `CCN(CCCN(CC)C(=O)Nc1c(C)cccc1C)C(=O)Nc1c(C)cccc1C`, for which the TGI was greater than 100 µM.

The test system of the next experiment is SNB-19 CNS. The experiment can be described thus: NCI-60 cell line screen, 48 h.
On to `COc1cc(C2c3cc4c(cc3OC(NN)C2C)OCO4)cc(OC)c1OC` (centres undefined), for which the TGI is greater than 100 µM.

The compound `CC1=C[C@@H]2Cc3nc4cc(Cl)ccc4c(N)c3[C@H](C1)C2` showed a TGI of 24 µM.

The compound `COc1cc(NS(C)(=O)=O)ccc1Nc1cc(C)[nH]c2ccc3nccc3c12` returned a TGI greater than 100 µM.

The compound `CCN(CCCN(CC)C(=O)Nc1c(C)cccc1C)C(=O)Nc1c(C)cccc1C` registered a TGI greater than 100 µM.

In the next experiment the test system is HCC-2998 colon. Put plainly: NCI-60 cell line screen, 48 h.
As for `COc1cc(C2c3cc4c(cc3OC(NN)C2C)OCO4)cc(OC)c1OC` (centres undefined), the TGI was determined as 3.55 µM.

Regarding `CCN(CCCN(CC)C(=O)Nc1c(C)cccc1C)C(=O)Nc1c(C)cccc1C`, the TGI was greater than 100 µM.

The next experiment concerns KM12 colon. The experiment can be described thus: NCI-60 cell line screen, 48 h.
For the compound `COc1cc(C2c3cc4c(cc3OC(NN)C2C)OCO4)cc(OC)c1OC` (centres undefined), the TGI is greater than 100 µM.

Compound `CC1=C[C@@H]2Cc3nc4cc(Cl)ccc4c(N)c3[C@H](C1)C2` yielded a TGI of 21.6 µM.

Regarding `COc1cc(NS(C)(=O)=O)ccc1Nc1cc(C)[nH]c2ccc3nccc3c12`, the TGI was greater than 100 µM.

As for `CCN(CCCN(CC)C(=O)Nc1c(C)cccc1C)C(=O)Nc1c(C)cccc1C`, the TGI was greater than 100 µM.

The test system of a further experiment is RXF 393 renal. Put plainly: NCI-60 cell line screen, 48 h.
The compound `COc1cc(C2c3cc4c(cc3OC(NN)C2C)OCO4)cc(OC)c1OC` (centres undefined) showed a TGI greater than 100 µM.

For `CC1=C[C@@H]2Cc3nc4cc(Cl)ccc4c(N)c3[C@H](C1)C2`, the TGI was found to be 18.3 µM.

As to `CCN(CCCN(CC)C(=O)Nc1c(C)cccc1C)C(=O)Nc1c(C)cccc1C`, the TGI was greater than 100 µM.

Another experiment has as its system UACC-62 melanoma. The experiment can be described thus: NCI-60 cell line screen, 48 h.
In turn, `COc1cc(C2c3cc4c(cc3OC(NN)C2C)OCO4)cc(OC)c1OC` (centres undefined) gave a TGI greater than 100 µM.

Take `CC1=C[C@@H]2Cc3nc4cc(Cl)ccc4c(N)c3[C@H](C1)C2`: the TGI stood at 31.5 µM.

`COc1cc(NS(C)(=O)=O)ccc1Nc1cc(C)[nH]c2ccc3nccc3c12` displayed a TGI greater than 100 µM.

Turning to `CCN(CCCN(CC)C(=O)Nc1c(C)cccc1C)C(=O)Nc1c(C)cccc1C`, the TGI was greater than 100 µM.

For another experiment, the system named is RPMI-8226 leukemia. The experiment can be described thus: NCI-60 cell line screen, 48 h.
Turning to `COc1cc(C2c3cc4c(cc3OC(NN)C2C)OCO4)cc(OC)c1OC` (centres undefined), the TGI amounted to 67.7 µM.

For `CC1=C[C@@H]2Cc3nc4cc(Cl)ccc4c(N)c3[C@H](C1)C2`, the TGI was found to be 13.4 µM.

As to `COc1cc(NS(C)(=O)=O)ccc1Nc1cc(C)[nH]c2ccc3nccc3c12`, the TGI is greater than 100 µM.

As for `CCN(CCCN(CC)C(=O)Nc1c(C)cccc1C)C(=O)Nc1c(C)cccc1C`, the TGI is greater than 100 µM.

In the next experiment the test system is 786-0 renal. Put plainly: NCI-60 cell line screen, 48 h.
In the case of `COc1cc(C2c3cc4c(cc3OC(NN)C2C)OCO4)cc(OC)c1OC` (centres undefined), the TGI is greater than 100 µM.

`CC1=C[C@@H]2Cc3nc4cc(Cl)ccc4c(N)c3[C@H](C1)C2`: the TGI came to 19 µM.

`COc1cc(NS(C)(=O)=O)ccc1Nc1cc(C)[nH]c2ccc3nccc3c12` returned a TGI greater than 100 µM.

Compound `CCN(CCCN(CC)C(=O)Nc1c(C)cccc1C)C(=O)Nc1c(C)cccc1C` came in with a TGI greater than 100 µM.

The subject of a further experiment is MCF7 breast. Put plainly: NCI-60 cell line screen, 48 h.
`COc1cc(C2c3cc4c(cc3OC(NN)C2C)OCO4)cc(OC)c1OC` (centres undefined): the TGI was greater than 40 µM.

As for `CC1=C[C@@H]2Cc3nc4cc(Cl)ccc4c(N)c3[C@H](C1)C2`, the TGI is 23.3 µM.

Compound `COc1cc(NS(C)(=O)=O)ccc1Nc1cc(C)[nH]c2ccc3nccc3c12` had a TGI greater than 100 µM.

Compound `CCN(CCCN(CC)C(=O)Nc1c(C)cccc1C)C(=O)Nc1c(C)cccc1C` returned a TGI greater than 100 µM.
